How the values were obtained:
[1] = system: neutrophil elastase (NE); assay: Active NE in blood (white blood cell pellets) of adults with CF; format: in vivo, human; details: for NE, median % reduction relative to baseline: Blood, day 29
Description: (§1) Blood PD samples were collected at screening; predose on days 1, 2, 14, 28, and 29; and at the follow-up visit (day 35). The samples were analyzed at an external service provider to determine the concentrations of active NE, PR3, and CatG in white blood cell pellets using validated enzymatic methods with quantification limits of 87.9 ng/mL for NE and PR3 and 70.3 ng/mL for CatG. The fit-for-purpose methods details were published internally and stored within Insmed’s document repository.
(§2) If a participant experienced an intercurrent event, defined as use of antibiotics during an acute event that could influence NSP levels, the data were not included in the PD analysis. In assessing treatment-emergent adverse events (TEAEs), the “while-on-treatment” strategy was implemented, which encompassed the 28-day period following the final dose of study drug. With this strategy, data collected prior to the occurrence of the intercurrent event, that is, to discontinuation of brensocatib, were included in the analysis.

[2] = system: cathepsin G (CatG); assay: Active CatG in blood (white blood cell pellets) of adults with CF; format: in vivo, human; details: for CatG, median % reduction relative to baseline: Blood, day 29
Description: as §1, §2

[3] = system: proteinase 3 (PR3); assay: Active PR3 in blood (white blood cell pellets) of adults with CF; format: in vivo, human; details: for PR3, median % reduction relative to baseline: Blood, day 29
Description: as §1, §2

[4] = system: proteinase 3 (PR3); assay: PR3 activity in sputum of adults with CF; format: in vivo, human
Description: as §2
On the basis of the comparability of PK between participants with and without concomitant use of CFTR modulators, NSP activity (NE, CatG, PR3) in blood and sputum was analyzed using the combined data sets without the CFTR modulator stratum.

[5] = system: NSP activity (NE, CatG, PR3); assay: Exposure-response of NSP activity reduction (LOESS regression); format: in vivo, human; details: particularly in blood
Description: The NSP activity reduction reached a saturation point at approximately 25 mg, as indicated by the plateau of the associated PK measures. The sensitivity of reduction for brensocatib was greatest for CatG, followed by NE, and PR3 (Fig. 6).

[6] = system: CYP3A; design: method as in PMID 35411669; details: cited from earlier work
[7] = system: breast cancer resistance protein (BCRP); design: method as in PMID 35411669; details: cited from earlier work
[8] = design: method as in PMID 40267423; details: NCFBE, ASPEN, cited from earlier work
[9] = over the dose range of 10–40 mg QD

Cn1c(=O)oc2ccc(-c3ccc(C[C@@H](C#N)NC(=O)[C@@H]4CNCCCO4)cc3)cc21 [Brensocatib]
NE, median % reduction relative to baseline ([1]; 10 mg QD, n = 6): 35.3 (n = 6) %
NE, median % reduction relative to baseline ([1]; 25 mg QD, n = 7): 56.4 (n = 7) %
NE, median % reduction relative to baseline ([1]; 40 mg QD, n = 7): 74.0 (n = 7) %
median percent reduction of NE activity in blood [1, 9]: 35–74%
CatG, median % reduction relative to baseline ([2]; 10 mg QD, n = 6): 75.1 (n = 6) %
CatG, median % reduction relative to baseline ([2]; 25 mg QD, n = 7): 84.9 (n = 7) %
CatG, median % reduction relative to baseline ([2]; 40 mg QD, n = 7): 91.3 (n = 7) %
median percent reduction of CatG activity in blood ([2]; in all doses of brensocatib): 75–91%
PR3, median % reduction relative to baseline ([3]; 10 mg QD, n = 6): 17.3 (n = 6) %
PR3, median % reduction relative to baseline ([3]; 25 mg QD, n = 7): 40.8 (n = 7) %
PR3, median % reduction relative to baseline ([3]; 40 mg QD, n = 7): 55.0 (n = 7) %
median percent reduction of PR3 activity in blood [3, 9]: 17–55%
PR3, median % reduction relative to baseline ([4]; 10 mg QD, day 29, n = 5): 59.1 (n = 5) %
PR3, median % reduction relative to baseline ([4]; 25 mg QD, day 29, n = 3): 67.1 (n = 3) %
PR3, median % reduction relative to baseline ([4]; 40 mg QD, day 29, n = 1): −17.0 (n = 1) %
dose at which NSP activity reduction reached a saturation point [5]: approximately 25 mg
substrate status ([6]; CYP3A): substrate
inhibition or induction of CYP3A [6]: not a clinically meaningful inhibitor or inducer
substrate status [7]: substrate
annualized rate of adjudicated pulmonary exacerbations compared with placebo ([8]; 10 mg or 25 mg QD): significantly reduced
lung function decline (FEV1) over 52 weeks compared with placebo ([8]; 25 mg): significantly lower
